{
  "source": "paper PMC6100113",
  "about": "“Involvement of CYP4F2 in the Metabolism of a Novel Monophosphate Ester Prodrug of Gemcitabine and Its Interaction Potential In Vitro” (Molecules : A Journal of Synthetic Chemistry and Natural …, 2018)",
  "key": {"[1]": {"assay": "Metabolic stability in rat liver microsomes", "format": "in vitro ADME", "details": "rat liver microsomes 0.2 mg/mL, with NADPH, 1 μM, 37 °C", "experimental": "(§1) Stability of Compound-3 was first investigated in microsomal systems from human and rat. The microsomal protein and Compound-3 concentrations were optimized to 0.2 mg/mL and 1 µM, respectively. Before the start of the incubation, reaction mixtures containing phosphate buffer (100 mM, pH 7.4), microsomes and Compound-3 in a total volume of 50 µL were warmed up at 37 °C for 10 min. The reaction was started with the addition of NADPH at a final concentration of 1 mM. Incubations were terminated at a specified time with the addition of 100 µL ice-cold acetonitrile containing the internal standard. The samples were then centrifuged, and aliquots of 10 µL of the supernatants were transferred into liquid chromatography-tandem mass spectrometry (LC-MS/MS) for the analysis of Compound-3 levels."}, "CYP3A4": {"target": "T1, CYP3A4 (Homo sapiens, UniProt P08684)", "T1 construct": "purchased Corning Gentest", "T1 sequence (P08684 whole entry)": "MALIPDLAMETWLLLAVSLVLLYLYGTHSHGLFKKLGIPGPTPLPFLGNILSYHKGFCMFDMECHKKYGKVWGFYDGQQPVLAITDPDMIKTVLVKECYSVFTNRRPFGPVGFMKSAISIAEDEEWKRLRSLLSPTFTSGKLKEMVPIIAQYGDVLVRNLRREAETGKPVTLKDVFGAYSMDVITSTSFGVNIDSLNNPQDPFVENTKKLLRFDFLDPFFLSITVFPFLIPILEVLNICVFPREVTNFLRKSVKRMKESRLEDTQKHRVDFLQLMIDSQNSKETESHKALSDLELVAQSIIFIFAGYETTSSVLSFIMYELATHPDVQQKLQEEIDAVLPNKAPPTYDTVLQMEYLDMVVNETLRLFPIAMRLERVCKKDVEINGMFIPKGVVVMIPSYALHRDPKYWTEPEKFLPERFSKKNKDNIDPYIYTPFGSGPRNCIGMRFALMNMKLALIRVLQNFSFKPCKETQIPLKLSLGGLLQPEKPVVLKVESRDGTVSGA", "assay": "Reaction phenotyping with recombinant CYP3A4", "format": "in vitro ADME", "details": "recombinant CYP3A4 50 nM, 1 μM, NADPH", "experimental": "(§2) Compound-3 was incubated separately with human cDNA-expressed cytochrome P450s (CYP1A2, CYP2B6, CYP2C8, CYP2C9, CYP2C19, CYP2D6, CYP3A4, CYP4A11, CYP4F2 and CYP4F3). The incubation mixtures contained individual CYP isoenzymes (50 nM), potassium phosphate buffer (100 mM, pH 7.4), NADPH (1 mM), and Compound-3 (1 µM). The final volume of the incubation mixture was 50 µL. Before the start of the incubation, reaction mixtures were warmed up at 37 °C for 10 min. The reaction was initiated with the addition of NADPH and the incubations were performed at 37 °C in a water bath. After 60 min of incubation, the reactions were terminated with an equal volume of ice-cold acetonitrile containing the internal standard. Control samples without NADPH but substrates were included. The samples were then centrifuged and aliquots of 10 μL of the supernatants were transferred onto LC-MS/MS for the analysis of Compound-3 and M4 (carboxylic acid) levels."}, "[2]": {"assay": "Metabolic stability in human liver microsomes", "format": "in vitro ADME", "details": "1 μM", "experimental": "as §1"}, "[3]": {"assay": "Metabolite identification by UPLC/Triple TOF MS in human intestinal microsomes", "format": "in vitro ADME", "set-up": "key: √: metabolites were detected by high-resolution mass spectrometry", "details": "Compound-3 10 μM, NADPH, 60 min, HRMS", "experimental": "(§3) For metabolite identification, a higher concentration of Compound-3 (10 μM) was incubated with liver microsomes (1 mg/mL) in the presence of NADPH (1 mM) and primary human hepatocytes at a density of 1 × 10^6 cell/mL. Samples were collected at 0 min and 60 min with the addition of ice-cold acetonitrile. After vortexing and centrifugation, the supernatant was transferred into a new tube and evaporated to dryness. The samples were then reconstituted in 100 μL of water and methanol (v/v, 9:1). An aliquot of 10 μL of reconstituted solution was injected into UPLC/Triple TOF 5600^+ MS for metabolite identification.\n(§4) Identification of Compound-3 metabolites was carried out using Acquity UPLC/Triple TOF 5600^+ system. Chromatographic separation for Compound-3 and its metabolites were achieved by an Acquity UPLC HSS T3 column (100 × 2.1 mm i.d., […]; Waters Corp.) maintained at 40 °C. The mobile phase was a mixture of 0.02% formic acid in 5 mM ammonium acetate (A) and methanol (B). The gradient elution was started from 2% B and maintained for 4 min, then increased linearly to 75% B over the next 4 min and maintained for 8 min. […] The flow rate was 0.4 mL/min and the eluent was monitored by UV detection at 280 nm.\n(§5) For mass detection, a Triple TOF 5600^+ mass spectrometer (AB Sciex, Framingham, MA, USA) was operated in positive ion electrospray (ES-positive) mode with the source temperature at 500 °C and scan range from m/z 100 to 1000 Da. Other parameters were set as follows: ion spray voltage, 5500 V; decluttering potential, 80 V; curtain gas, 40 psi; ion source gas 1, 55 psi; and ion source gas 2, 50 psi. Collision energies of 25 and 65 eV were used for TOF MS and product ion scans, respectively, and a collision energy spread of 20 was used in the MS/MS analysis. Information-dependent acquisition (IDA), together with real-time multiple mass defect filter, was used to trigger acquisition of MS/MS spectra."}, "[4]": {"assay": "Metabolite identification by UPLC/Triple TOF MS in human hepatocytes", "format": "in vitro ADME", "set-up": "key: √: metabolites were detected by high-resolution mass spectrometry", "details": "Compound-3 10 μM, 1 × 10^6 cell/mL, 60 min, HRMS", "experimental": "as §3, §4, §5"}, "[5]": {"tested_on": "CYP1A2, CYP2B6, CYP2C8, CYP2C9, CYP2C19, CYP2D6, CYP4A11 and CYP4F3", "assay": "Reaction phenotyping with the rest of the recombinant CYP isozymes", "format": "in vitro ADME, human", "details": "50 nM, 1 μM, NADPH", "experimental": "as §2"}, "[6]": {"assay": "Metabolite identification by UPLC/Triple TOF MS in rat intestinal microsomes", "format": "in vitro ADME", "set-up": "key: √: metabolites were detected by high-resolution mass spectrometry", "details": "Compound-3 10 μM, NADPH, 60 min, HRMS"}, "Stability in rat plasma": {"assay": "Stability in rat plasma", "format": "in vitro ADME", "details": "1 μM, 37 °C", "experimental": "(§6) For stability testing in plasma, the reaction was started with the addition of Compound-3 (1 µM). At specified time points, aliquots of 25 µL of the reaction mixtures were transferred into 100 μL ice-cold acetonitrile containing the internal standard. The samples were then centrifuged, and aliquots of 10 µL of the supernatants were transferred onto LC-MS/MS for the analysis of Compound-3 levels."}, "[7]": {"tested_on": "human equilibrative transporter 1 (hENT1)", "details": "cited from earlier work"}, "[8]": {"assay": "Metabolite identification by UPLC/Triple TOF MS in rat liver microsomes", "format": "in vitro ADME", "set-up": "key: √: metabolites were detected by high-resolution mass spectrometry", "details": "Compound-3 10 μM, 1 mg/mL microsomes, NADPH, 60 min, HRMS", "experimental": "as §3, §4, §5"}, "[9]": {"assay": "Stability in human plasma", "format": "in vitro ADME", "details": "1 μM, 37 °C", "experimental": "as §6"}, "[10]": {"assay": "Metabolic stability in human intestinal microsomes", "format": "in vitro ADME", "details": "human intestinal microsomes 0.2 mg/mL, with NADPH, 1 μM, 37 °C", "experimental": "as §1"}},
  "data": [
    {"smiles": "CCCCCCCCCCCCCCCCCCOCCOP(=O)(O)OCC1OC(n2ccc(N)nc2=O)C(F)(F)C1O", "note": "(stereo not shown) [Compound-3]", "values": [
      {"measurement": "disappearance in 60 min", "setting": "[1]", "result": "~ 10%"},
      {"measurement": "metabolism of Compound-3 by CYP isozyme", "setting": "CYP3A4", "result": "moderate metabolic activity"},
      {"measurement": "stability in microsomes in the absence of NADPH", "setting": "[2]; human and rat liver and intestinal microsomes, absence of NADPH", "result": "relatively stable"},
      {"measurement": "disappearance after 60 min incubation", "setting": "[2]; human liver microsomes 0.2 mg/mL, with NADPH, 37 °C, 60 min", "result": "more than 70%"},
      {"measurement": "detected in matrix HIM", "setting": "[3]", "result": "√"},
      {"measurement": "detected in matrix Human Hepatocytes", "setting": "[4]", "result": "√"},
      {"measurement": "metabolism of Compound-3 by CYP isozyme", "setting": "[5]", "result": "did not participate"},
      {"measurement": "detected in matrix RIM", "setting": "[6]", "result": "√"},
      {"measurement": "disappearance in plasma", "setting": "Stability in rat plasma", "result": "did not display noticeable disappearance"},
      {"measurement": "cellular uptake limitation by hENT1", "setting": "[7]", "result": "low propensity to be limited"},
      {"measurement": "detected in matrix RLM", "setting": "[8]", "result": "√"},
      {"measurement": "disappearance in plasma", "setting": "[9]", "result": "did not display noticeable disappearance"},
      {"measurement": "disappearance after 60 min incubation", "setting": "[10]", "result": "> 50", "unit": "%"}
    ]}
  ]
}
